Consider 3 compounds from ChEMBL document CHEMBL3132775, “Design, synthesis and biochemical investigation, by in vitro luciferase reporter system, of peptide nucleic acids as new inhibitors of miR-509-3p involved in the regulation of cystic fibrosis disease-gene expression” (Medchemcomm, 2014).

Activity calls are given as the source filed them. The rule behind the calls is not given here.

Experiment [1] has as its system A549. Kind of experiment: Inhibition of miR-509-3p (unknown origin) transfected in human A549 cells at 10 to 50 uM by dual luciferase reporter gene assay. The experiment is classed as cell-based. (A reporter such as luciferase makes a cellular process visible.)
The subject of experiment [2] is A549. Kind of experiment: Inhibition of miR-509-3p (unknown origin) transfected in human A549 cells at 100 uM after 12 hrs by fluorescence microscopy. In kind it is cell-based.
Experiment [3] is described as follows: Binding affinity to miR-509-3p (unknown origin) assessed as heteroduplex formation by CD spectra analysis.
The nature of experiment [4]: Binding affinity to miR-509-3p (unknown origin) assessed as apparent melting temperature by UV-spectrophotometeric analysis.
The nature of experiment [5]: Binding affinity to miR-509-3p (unknown origin) assessed as heteroduplex formation at 1:15 and 1:5 ratio after 2 hrs by EMSA. In general terms: In EMSA bound probe runs differently from free probe, usually more slowly.
Experiment [6] deals with A549. As to the kind of experiment: Inhibition of miR-509-3p (unknown origin) transfected in human A549 cells by dual luciferase reporter gene assay. The experiment is classed as cell-based.
Experiment [7] has as its system A549. Kind of experiment: Inhibition of miR-509-3p (unknown origin) transfected in human A549 cells assessed as luciferase activity at 50 uM by dual luciferase reporter gene assay. In kind it is cell-based. More on the design: scale not given: the % may be the effect or the level left.

Turning to `Cc1cn(CC(=O)N(CCNC(=O)CN(CCNC(=O)CN(CCNC(=O)CN(CCNC(=O)CN(CCNC(=O)CN(CCNC(=O)CN(CCNC(=O)CN(CCNC(=O)CN(CCNC(=O)CN(CCNC(=O)CN(CCNC(=O)CN(CCNC(=O)COCCOCCNC(=S)Nc2ccc(C3c4ccc(O)cc4Oc4cc(O)ccc43)c(C(=O)O)c2)C(=O)Cn2cnc3c(N)ncnc32)C(=O)Cn2cnc3c(=O)[nH]c(N)nc32)C(=O)Cn2cnc3c(N)ncnc32)C(=O)Cn2ccc(N)nc2=O)C(=O)Cn2cnc3c(=O)[nH]c(N)nc32)C(=O)Cn2cc(C)c(=O)[nH]c2=O)C(=O)Cn2cnc3c(N)ncnc32)C(=O)Cn2ccc(N)nc2=O)C(=O)Cn2ccc(N)nc2=O)C(=O)Cn2cnc3c(N)ncnc32)C(=O)Cn2cnc3c(N)ncnc32)CC(=O)NCCN(CC(=O)NCCN(CC(=O)N[C@@H](CCCCN)C(=O)N[C@@H](CCCCN)C(N)=O)C(=O)Cn2cnc3c(N)ncnc32)C(=O)Cn2ccc(N)nc2=O)c(=O)[nH]c1=O`, the inhibition entry in the experiment on A549 [1] was “Active”. Besides, in the experiment with A549 [2], the inhibition entry was “inactive”. For the same compound, the result in experiment [3] and in experiment [5] was Active. In addition, the Tm(app) in experiment [4] was 80 °C.
For `Cc1cn(CC(=O)N(CCNC(=O)CN(CCNC(=O)CN(CCNC(=O)CN(CCNC(=O)CN(CCNC(=O)CN(CCNC(=O)CN(CCNC(=O)CN(CCNC(=O)CN(CCNC(=O)CN(CCNC(=O)CN(CCNC(=O)CN(CCNC(=O)COCCOCCNC(=S)Nc2ccc(C3c4ccc(O)cc4OC4=CC(=O)C=CC43)c(C(=O)O)c2)C(=O)Cn2cnc3c(N)ncnc32)C(=O)Cn2cnc3c(=O)[nH]c(N)nc32)C(=O)Cn2cnc3c(N)ncnc32)C(=O)Cn2ccc(N)nc2=O)C(=O)Cn2cnc3c(=O)[nH]c(N)nc32)C(=O)Cn2cc(C)c(=O)[nH]c2=O)C(=O)Cn2cnc3c(N)ncnc32)C(=O)Cn2ccc(N)nc2=O)C(=O)Cn2ccc(N)nc2=O)C(=O)Cn2cnc3c(N)ncnc32)C(=O)Cn2cnc3c(N)ncnc32)CC(=O)NCCN(CC(=O)NCCN(CC(=O)NCC(=O)NC(COP(=O)(O)O)C(=O)NC(COP(=O)(O)O)C(=O)NCC(N)=O)C(=O)Cn2cnc3c(N)ncnc32)C(=O)Cn2ccc(N)nc2=O)c(=O)[nH]c1=O` (stereo unspecified), in the experiment on A549 [6], the inhibition result was “Dose-dependent effect”. For the same compound, the inhibition result with A549 [2] is “inactive”. Moreover, the outcome in experiment [3] and in experiment [5] was Active. The Tm(app) in experiment [4] stood at 74 °C.
Take `Cc1cn(CC(=O)N(CCNC(=O)CN(CCNC(=O)CN(CCNC(=O)CN(CCNC(=O)CN(CCNC(=O)CN(CCNC(=O)CN(CCNC(=O)COCCOCCNC(=S)Nc2ccc(C3c4ccc(O)cc4OC4=CC(=O)C=CC43)c(C(=O)O)c2)C(=O)Cn2ccc(N)nc2=O)C(=O)Cn2cnc3c(N)ncnc32)C(=O)Cn2ccc(N)nc2=O)C(=O)Cn2cnc3c(=O)[nH]c(N)nc32)C(=O)Cn2cnc3c(=O)[nH]c(N)nc32)C(=O)Cn2cnc3c(N)ncnc32)CC(=O)NCCN(CC(=O)NCCN(CC(=O)NCCN(CC(=O)NCCN(CC(=O)NCCN(CC(=O)NCCN(CC(=O)NCCN(CC(=O)NCC(=O)NC(COP(=O)(O)O)C(=O)NC(COP(=O)(O)O)C(=O)NCC(N)=O)C(=O)Cn2cc(C)c(=O)[nH]c2=O)C(=O)Cn2cnc3c(=O)[nH]c(N)nc32)C(=O)Cn2ccc(N)nc2=O)C(=O)Cn2ccc(N)nc2=O)C(=O)Cn2cnc3c(=O)[nH]c(N)nc32)C(=O)Cn2cnc3c(N)ncnc32)C(=O)Cn2cnc3c(=O)[nH]c(N)nc32)c(=O)[nH]c1=O` (stereo unspecified): the Activity in the experiment with A549 [7] is under 40%.
